# Measured values published in PubChem BioAssay (NCI).
#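 Tested at 5 concentrations; 48 h exposure; 96-well plates; endpoints linearly interpolated, else capped at highest concentration. GI50 marks 50% less growth. TGI: total growth inhibition.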
# Legend:
# Assay in all cases: NCI-60 cell line screen, 48 h
# NCI-H23 lung = test system: NCI-H23 lung
# HOP-62 NSCLC = test system: HOP-62 NSCLC
# SR leukemia = test system: SR leukemia
# LOX IMVI melanoma = test system: LOX IMVI melanoma
# CAKI-1 renal = test system: CAKI-1 renal
# UO-31 renal = test system: UO-31 renal
# TK-10 renal = test system: TK-10 renal
# MOLT-4 leukemia = test system: MOLT-4 leukemia
# OVCAR-5 ovarian = test system: OVCAR-5 ovarian
# SW-620 colon = test system: SW-620 colon
# RPMI-8226 leukemia = test system: RPMI-8226 leukemia
# M14 melanoma = test system: M14 melanoma
# HT29 colon = test system: HT29 colon
# HCT-116 colon = test system: HCT-116 colon
# ACHN renal = test system: ACHN renal
# OVCAR-3 ovarian = test system: OVCAR-3 ovarian
# OVCAR-8 ovarian = test system: OVCAR-8 ovarian
# EKVX NSCLC = test system: EKVX NSCLC
# COLO 205 colon = test system: COLO 205 colon
# SK-MEL-28 melanoma = test system: SK-MEL-28 melanoma
# K-562 leukemia = test system: K-562 leukemia
# PC-3 prostate = test system: PC-3 prostate
# RXF 393 renal = test system: RXF 393 renal
# NCI/ADR-RES ovarian = test system: NCI/ADR-RES ovarian
# CCRF-CEM leukemia = test system: CCRF-CEM leukemia
# HOP-92 NSCLC = test system: HOP-92 NSCLC
# MDA-MB-231 breast = test system: MDA-MB-231 breast
# SNB-19 CNS = test system: SNB-19 CNS
# SK-MEL-2 melanoma = test system: SK-MEL-2 melanoma
# NCI-H522 lung = test system: NCI-H522 lung
# HCT-15 colon = test system: HCT-15 colon
# A498 renal = test system: A498 renal
# HS 578T breast = test system: HS 578T breast
# SF-295 CNS = test system: SF-295 CNS
# IGROV1 ovarian = test system: IGROV1 ovarian
# DU-145 prostate = test system: DU-145 prostate
# NCI-H226 lung = test system: NCI-H226 lung
# BT-549 breast = test system: BT-549 breast
# NCI-H460 lung = test system: NCI-H460 lung
# HL-60(TB) leukemia = test system: HL-60(TB) leukemia
# MCF7 breast = test system: MCF7 breast
# MALME-3M melanoma = test system: MALME-3M melanoma
# HCC-2998 colon = test system: HCC-2998 colon
# SK-MEL-5 melanoma = test system: SK-MEL-5 melanoma
# 786-0 renal = test system: 786-0 renal
# U251 CNS = test system: U251 CNS
# SF-539 CNS = test system: SF-539 CNS
# T-47D breast = test system: T-47D breast
# OVCAR-4 ovarian = test system: OVCAR-4 ovarian
# SF-268 CNS = test system: SF-268 CNS
# SN12C renal = test system: SN12C renal
# SNB-75 CNS = test system: SNB-75 CNS
# UACC-62 melanoma = test system: UACC-62 melanoma
# KM12 colon = test system: KM12 colon
# SK-OV-3 ovarian = test system: SK-OV-3 ovarian
# A549 NSCLC = test system: A549 NSCLC
# MDA-MB-435 = test system: MDA-MB-435
# UACC-257 melanoma = test system: UACC-257 melanoma
structure (smiles),measurement,setting,value
COc1ccc2cc(-c3ccoc(=O)c3-c3cc(OC)c(OC)c(OC)c3)ccc2c1,GI50,NCI-H23 lung,0.141 µM
same,GI50,HOP-62 NSCLC,0.27 µM
same,TGI,HOP-62 NSCLC,> 100 µM
same,GI50,SR leukemia,0.0301 µM
same,GI50,LOX IMVI melanoma,1.15 µM
same,TGI,LOX IMVI melanoma,> 100 µM
same,GI50,CAKI-1 renal,0.0986 µM
same,TGI,CAKI-1 renal,> 100 µM
same,GI50,UO-31 renal,0.1 µM
same,TGI,UO-31 renal,> 100 µM
same,TGI,TK-10 renal,> 100 µM
same,GI50,MOLT-4 leukemia,0.161 µM
same,TGI,MOLT-4 leukemia,> 51.1 µM
same,GI50,OVCAR-5 ovarian,0.369 µM
same,TGI,OVCAR-5 ovarian,> 100 µM
same,GI50,SW-620 colon,0.0455 µM
same,TGI,SW-620 colon,> 100 µM
same,GI50,RPMI-8226 leukemia,0.218 µM
same,TGI,RPMI-8226 leukemia,13.4 µM
same,GI50,M14 melanoma,0.0681 µM
same,TGI,M14 melanoma,> 100 µM
same,GI50,HT29 colon,0.0383 µM
same,TGI,HT29 colon,22.5 µM
same,GI50,HCT-116 colon,0.044 µM
same,GI50,ACHN renal,1.48 µM
same,TGI,ACHN renal,> 100 µM
same,GI50,OVCAR-3 ovarian,0.0316 µM
same,TGI,OVCAR-3 ovarian,> 100 µM
same,GI50,OVCAR-8 ovarian,0.334 µM
same,TGI,OVCAR-8 ovarian,> 100 µM
same,GI50,EKVX NSCLC,0.566 µM
same,TGI,EKVX NSCLC,> 100 µM
same,GI50,COLO 205 colon,0.0449 µM
same,TGI,COLO 205 colon,0.212 µM
same,GI50,SK-MEL-28 melanoma,0.683 µM
same,TGI,SK-MEL-28 melanoma,> 100 µM
same,GI50,K-562 leukemia,0.0346 µM
same,TGI,K-562 leukemia,> 39.4 µM
same,GI50,PC-3 prostate,0.0521 µM
same,TGI,PC-3 prostate,> 100 µM
same,GI50,RXF 393 renal,0.028 µM
same,TGI,RXF 393 renal,> 100 µM
same,GI50,NCI/ADR-RES ovarian,0.0528 µM
same,TGI,NCI/ADR-RES ovarian,> 100 µM
same,GI50,CCRF-CEM leukemia,0.0842 µM
same,TGI,CCRF-CEM leukemia,> 100 µM
same,GI50,HOP-92 NSCLC,2.49 µM
same,TGI,HOP-92 NSCLC,> 100 µM
same,GI50,MDA-MB-231 breast,0.148 µM
same,TGI,MDA-MB-231 breast,> 100 µM
same,GI50,SNB-19 CNS,0.125 µM
same,TGI,SNB-19 CNS,> 100 µM
same,GI50,SK-MEL-2 melanoma,0.0752 µM
same,TGI,SK-MEL-2 melanoma,> 100 µM
same,GI50,NCI-H522 lung,0.0206 µM
same,TGI,NCI-H522 lung,0.113 µM
same,GI50,HCT-15 colon,0.059 µM
same,TGI,HCT-15 colon,> 100 µM
same,GI50,A498 renal,0.0723 µM
same,GI50,HS 578T breast,0.134 µM
same,TGI,HS 578T breast,> 100 µM
same,GI50,SF-295 CNS,0.045 µM
same,GI50,IGROV1 ovarian,0.0339 µM
same,TGI,IGROV1 ovarian,> 20.6 µM
same,GI50,DU-145 prostate,0.188 µM
same,TGI,DU-145 prostate,> 100 µM
same,GI50,NCI-H226 lung,6.69 µM
same,TGI,NCI-H226 lung,> 100 µM
same,GI50,BT-549 breast,0.232 µM
same,TGI,BT-549 breast,> 100 µM
same,GI50,NCI-H460 lung,0.0526 µM
same,TGI,NCI-H460 lung,> 32 µM
same,GI50,HL-60(TB) leukemia,0.0353 µM
same,TGI,HL-60(TB) leukemia,0.793 µM
same,GI50,MCF7 breast,0.0322 µM
same,TGI,MCF7 breast,> 57.5 µM
same,GI50,MALME-3M melanoma,> 100 µM
same,TGI,MALME-3M melanoma,> 100 µM
same,GI50,HCC-2998 colon,0.0744 µM
same,TGI,HCC-2998 colon,0.426 µM
same,GI50,SK-MEL-5 melanoma,0.0379 µM
same,TGI,SK-MEL-5 melanoma,4.1 µM
same,GI50,786-0 renal,0.201 µM
same,TGI,786-0 renal,> 100 µM
same,GI50,U251 CNS,0.112 µM
same,TGI,U251 CNS,> 100 µM
same,GI50,SF-539 CNS,0.266 µM
same,TGI,SF-539 CNS,> 100 µM
same,GI50,T-47D breast,0.0772 µM
same,TGI,T-47D breast,> 100 µM
same,GI50,OVCAR-4 ovarian,1.16 µM
same,TGI,OVCAR-4 ovarian,> 100 µM
same,GI50,SF-268 CNS,0.626 µM
same,TGI,SF-268 CNS,> 100 µM
same,GI50,SN12C renal,0.639 µM
same,TGI,SN12C renal,> 100 µM
same,GI50,SNB-75 CNS,0.0977 µM
same,TGI,SNB-75 CNS,> 100 µM
same,GI50,UACC-62 melanoma,0.0536 µM
same,TGI,UACC-62 melanoma,> 100 µM
same,GI50,KM12 colon,0.0238 µM
same,GI50,SK-OV-3 ovarian,0.389 µM
same,TGI,SK-OV-3 ovarian,> 100 µM
same,GI50,A549 NSCLC,0.0775 µM
same,TGI,A549 NSCLC,> 100 µM
c1ccc2c(c1)c(NCCCCN1CCCCC1)cc1c3ccccc3c(NCCCCN3CCCCC3)cc21,GI50,NCI-H23 lung,20.5 µM
same,TGI,NCI-H23 lung,44.5 µM
same,GI50,HOP-62 NSCLC,10.9 µM
same,TGI,HOP-62 NSCLC,26 µM
same,GI50,LOX IMVI melanoma,11.2 µM
same,TGI,LOX IMVI melanoma,28.2 µM
same,GI50,CAKI-1 renal,21 µM
same,TGI,CAKI-1 renal,46.1 µM
same,GI50,UO-31 renal,28.7 µM
same,TGI,UO-31 renal,> 100 µM
same,GI50,TK-10 renal,22.1 µM
same,TGI,TK-10 renal,48.9 µM
same,GI50,MOLT-4 leukemia,6.96 µM
same,TGI,MOLT-4 leukemia,> 100 µM
same,GI50,OVCAR-5 ovarian,24.3 µM
same,TGI,OVCAR-5 ovarian,48.9 µM
same,GI50,SW-620 colon,10.6 µM
same,TGI,SW-620 colon,> 100 µM
same,GI50,RPMI-8226 leukemia,3.85 µM
same,TGI,RPMI-8226 leukemia,74.5 µM
same,GI50,HCT-116 colon,5.22 µM
same,TGI,HCT-116 colon,32.7 µM
same,GI50,ACHN renal,15.5 µM
same,TGI,ACHN renal,30.5 µM
same,GI50,OVCAR-3 ovarian,19.5 µM
same,TGI,OVCAR-3 ovarian,87.2 µM
same,GI50,OVCAR-8 ovarian,21.2 µM
same,TGI,OVCAR-8 ovarian,47.2 µM
same,GI50,EKVX NSCLC,19.9 µM
same,TGI,EKVX NSCLC,42 µM
same,GI50,COLO 205 colon,21.9 µM
same,TGI,COLO 205 colon,47.7 µM
same,GI50,K-562 leukemia,7.85 µM
same,TGI,K-562 leukemia,> 100 µM
same,GI50,PC-3 prostate,13.4 µM
same,TGI,PC-3 prostate,78.5 µM
same,GI50,RXF 393 renal,15.7 µM
same,TGI,RXF 393 renal,38.2 µM
same,GI50,MDA-MB-435,3.42 µM
same,TGI,MDA-MB-435,12.3 µM
same,GI50,NCI/ADR-RES ovarian,16.6 µM
same,TGI,NCI/ADR-RES ovarian,38.4 µM
same,GI50,CCRF-CEM leukemia,13.4 µM
same,TGI,CCRF-CEM leukemia,> 100 µM
same,GI50,HOP-92 NSCLC,20.4 µM
same,TGI,HOP-92 NSCLC,52.7 µM
same,GI50,MDA-MB-231 breast,17.2 µM
same,TGI,MDA-MB-231 breast,35.7 µM
same,GI50,SNB-19 CNS,22.5 µM
same,TGI,SNB-19 CNS,50.9 µM
same,GI50,SK-MEL-2 melanoma,69.3 µM
same,TGI,SK-MEL-2 melanoma,> 100 µM
same,GI50,NCI-H522 lung,66.2 µM
same,TGI,NCI-H522 lung,> 100 µM
same,GI50,HCT-15 colon,22.8 µM
same,TGI,HCT-15 colon,47.5 µM
same,GI50,A498 renal,13.6 µM
same,TGI,A498 renal,32.9 µM
same,GI50,HS 578T breast,27.5 µM
same,TGI,HS 578T breast,68.6 µM
same,GI50,SF-295 CNS,22.8 µM
same,TGI,SF-295 CNS,65.4 µM
same,GI50,IGROV1 ovarian,36.9 µM
same,TGI,IGROV1 ovarian,> 100 µM
same,GI50,DU-145 prostate,16.3 µM
same,TGI,DU-145 prostate,46.2 µM
same,GI50,NCI-H226 lung,20.9 µM
same,TGI,NCI-H226 lung,54.9 µM
same,GI50,BT-549 breast,20.7 µM
same,TGI,BT-549 breast,45.2 µM
same,GI50,NCI-H460 lung,18.3 µM
same,TGI,NCI-H460 lung,53.7 µM
same,GI50,HL-60(TB) leukemia,19.7 µM
same,TGI,HL-60(TB) leukemia,> 100 µM
same,GI50,MCF7 breast,4.76 µM
same,TGI,MCF7 breast,23.2 µM
same,GI50,MALME-3M melanoma,12.9 µM
same,TGI,MALME-3M melanoma,38.7 µM
same,GI50,HCC-2998 colon,18.2 µM
same,TGI,HCC-2998 colon,41.6 µM
same,GI50,SK-MEL-5 melanoma,15.1 µM
same,TGI,SK-MEL-5 melanoma,31.4 µM
same,GI50,UACC-257 melanoma,2.67 µM
same,TGI,UACC-257 melanoma,6.36 µM
same,GI50,786-0 renal,12 µM
same,TGI,786-0 renal,29.1 µM
same,GI50,U251 CNS,7.67 µM
same,TGI,U251 CNS,29.8 µM
same,GI50,SF-539 CNS,16.5 µM
same,TGI,SF-539 CNS,37.5 µM
same,GI50,SF-268 CNS,14.1 µM
same,TGI,SF-268 CNS,32.1 µM
same,GI50,SN12C renal,17.2 µM
same,TGI,SN12C renal,35.4 µM
same,GI50,UACC-62 melanoma,19.5 µM
same,TGI,UACC-62 melanoma,35.4 µM
same,GI50,KM12 colon,2.97 µM
same,TGI,KM12 colon,8.98 µM
same,GI50,SK-OV-3 ovarian,18.3 µM
same,TGI,SK-OV-3 ovarian,48.1 µM
same,GI50,A549 NSCLC,21.8 µM
same,TGI,A549 NSCLC,56.6 µM
